Test results reported in US20040110718A1, “Anti-HCV nucleoside derivatives” (priority 2000, published 2004).

What was measured:
[1] = test system: HCV replicon RNA replication; test: HCV replicon assay (quantification of replicon RNA, Northern blot / Taqman kinetic PCR); type: cell-based; conditions: Hepatitis C virus, Huh-7, 72 h
Description: Assay Method: The activity of the compounds was assayed using an adaptation of the method reported by Lohmann et al [V. Lohmann et al., Science, 1999, 285, 110-113].
The HCV replicon-containing cell line is used for the identification of small molecules that are able to inhibit the replication of the replicon RNA. Since the replicon RNA replication mimics the replication of the HCV RNA in infected hepatocytes, it is believed that those small molecules that have the above property are interesting for further development as anti-HCV drugs.
The inhibition of the HCV replicon RNA replication will lead to a decrease of the replicon RNA in the cell, which can be measured using a method that specifically quantifies this RNA.
Northern blot: One method for quantification of this RNA uses the standard Northern blot known to any person skilled in the art.
Kinetic PCR: A second assay for the quantification of replicon RNA is based on the amplification of the replicon RNA that remains in the cell, after incubation of the cells with a proper concentration of the small molecules. This method involves the reverse transcription of the replicon RNA to the corresponding complementary DNA (cDNA), followed by amplification of the cDNA using the Taqman Kinetic PCR technology (PE Biosystems). This consists of hybridisation of the cDNA with a complementary reporter oligonucleotide (probe), containing a combined fluorescent dye and a quencher dye. Amplification of the DNA sequence containing the hybridised reporter probe, using flanking oligonucleotide primers will lead to the separation of the fluorescent dye from the quencher dye. This will result in an increase of the fluorescence during each amplification cycle.
The neomycin phosphotransferase gene sequence that is present in the replicon RNA was chosen for amplification using specifically designed oligonucleotide primers. To control for (a) cell number that can vary depending on the toxicity or cytostatic effect of the small molecules, and (b) for errors during total RNA extraction, amplification of the host β-actin gene is used for normalisation.
The accumulation of the PCR products during the reaction is monitored directly by measuring the increase in fluorescence of the reporter dye. The amount of HCV replicon RNA (and β-actin RNA) originally present in the total RNA extracted from the cells is then expressed as a threshold cycle, e.g. the cycle at which there is a statistically significant increase in the fluorescence above the background.
For this procedure, HCV replicon-containing human hepatoma Huh7 cells (9-13) in growth medium (DMEM) containing 5% FCS are plated in a 96-well plate at 5×10^3 cells per well, and the plate incubated overnight. 24 hours later, different dilutions in 0.1 ml growth medium of chemical compounds were added to the wells, and the plate further incubated at 37° C. for three days. Total RNA coming from each well is extracted using the RNeasy™ procedure (Qiagen manufacturer instructions), and the total RNA is eluted in a final volume of 0.13 ml. Next, a 2 μl sample of the total RNA is used for convertion into cDNA using a reverse transcription (RT) step. A RT mastermix containing 1 μl 10× Taqman RT buffer, 2.2 μl 25 mM MgCl2 (5.5 mM final conc.), 2 μl dNTP mix (500 μM each), 0.5 μl random hexamer primers (2.5 μM), 0.2 μl RNase inhibitor (0.4 u/μl ), 0.25 μl RT (1.25 u/μl ), 1.85 μl H2O, was distributed in a 96-well plate and 2 μl total RNA was added to each well.
The RT reaction is performed by incubation of the plate 10 min at 25° C., 30 min at 48° C., 5 min at 95° C. and cooling to 4° C. The cDNA samples are then stored at −20° C. or directly used for the PCR reaction. […]

[2] = test system: HCV replicon RNA replication; test: HCV replicon assay, Renilla luciferase reporter; type: cell-based; conditions: Hepatitis C virus, Huh-7, 72 h; Renilla luciferase HCV replicon cells (2209-23, Huh7), three days incubation; concentration reducing luciferase activity/replicon level by 50%
[3] = HCV replicon-containing human hepatoma Huh7 cells (9-13), three days incubation, concentration reducing replicon RNA levels by 50%, read-out: IC50

OC[C@H]1O[C@@H](n2cnc3c(-c4ccsc4)ncnc32)[C@H](O)[C@@H]1O [Example 181, 9-(β-D-Ribofuranosyl)-6-(3-thienyl)purine]
melting point: 166 to 167 °C (dec.) | IC50 [1]: 0.05 µM

OC[C@H]1O[C@@H](n2cnc3c(-c4ccccc4)ncnc32)[C@H](O)[C@@H]1O [Example 182, 6-Phenyl-9-(β-D-ribofuranosyl)purine]
melting point: 224 to 225 °C | IC50 [1, 3]: 0.1 µM

Nc1ccn([C@@H]2C[C@H](CO)[C@@H](O)C2(F)F)c(=O)n1 [Example 245, 1-[1(R)-2,2-difluoro-3(R)-hydroxy-4(R)-(hydroxymethyl)cyclopentyl]-4-amino-1H-pyrimindin-2-one]
IC50 [1, 3]: 2 µM

Nc1ccn([C@@H]2C[C@H](CO)[C@@H](O)[C@H]2O)c(=O)n1 [Example 246, 4-amino-1(R)-(2(S),3(R)-dihydroxy-4(R)-hydroxymethyl-cyclopentyl)-1H-pyrimidin-2-one]
IC50 [2]: 0.4 µM

Nc1ccn([C@@H]2O[C@H](CO)[C@H](O)[C@H]2O)c(=O)n1 [Example 247, 1-(β-D-xylofuranosyl)cytosine]
IC50 [2]: 3.7 µM

Nc1ccn([C@@H]2O[C@H](CO)[C@H](F)[C@H]2O)c(=O)n1 [Example 249, 1-(3-deoxy-3-fluoro-β-D-xylofuranosyl)cytosine]
IC50 [2]: 10.4 µM

CCNc1ncnc2c1ncn2[C@@H]1O[C@H](CO)[C@@H](O)[C@H]1O [Example 252, 6-ethylamino-9-(β-D-ribofuranosyl)purine]
IC50 [2]: 14 µM

CCCNc1ncnc2c1ncn2[C@@H]1O[C@H](CO)[C@@H](O)[C@H]1O [Example 253, 6-propylamino-9-(β-D-ribofuranosyl)purine]
IC50 [2]: 7 µM
